Source: US11759462B2, “Spirocyclic compounds as tryptophan hydroxylase inhibitors” (priority 2013, dated 2023)
pIC50: −log10 of the molar value.

What follows are compounds tested against T1, Recombinant human TPH1 (MBP tagged) (Homo sapiens, UniProt P17752) (assay: TPH1 in vitro inhibition assay (kinetic fluorescence)). Conditions: TPH1 Range (TPH1 inhibition IC50).
T1 construct: cloning full length human TPH1 cDNA in to a bacterial pMAL-c5E expression vector; made in house; host or cells: E. coli BL21 (DE3)
T1 sequence (P17752 1-444): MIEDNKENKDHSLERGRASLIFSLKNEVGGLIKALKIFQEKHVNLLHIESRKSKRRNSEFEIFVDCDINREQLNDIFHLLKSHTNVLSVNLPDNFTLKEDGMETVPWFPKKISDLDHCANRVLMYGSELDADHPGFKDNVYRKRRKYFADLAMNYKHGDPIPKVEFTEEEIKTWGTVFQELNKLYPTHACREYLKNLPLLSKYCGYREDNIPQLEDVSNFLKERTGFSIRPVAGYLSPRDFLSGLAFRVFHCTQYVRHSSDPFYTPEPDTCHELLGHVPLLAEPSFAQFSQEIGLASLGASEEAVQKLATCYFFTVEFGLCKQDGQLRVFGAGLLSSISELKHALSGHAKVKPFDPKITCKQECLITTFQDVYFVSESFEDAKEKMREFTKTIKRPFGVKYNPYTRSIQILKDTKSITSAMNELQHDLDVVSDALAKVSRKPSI
Format: biochemical
Procedure, shortened: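 Final mix: 15 nM MBP-TPH1, 30 μM Trp, 36 μM 6-methyltetrahydropterin, 25 μM ferrous ammonium sulfate, 50 mM MES pH 7.1, 1% DMSO, room temperature.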

SMILES	pIC50
CCOc1ccc(-c2cc(Cl)ccc2[C@@H](Oc2cc(N3CCC4(CC3)CN[C@H](C(=O)O)C4)nc(N)n2)C(F)(F)F)cc1Cl [Example 34ai, (S)-8-(2-amino-6-((R)-1-(3′,5-dichloro-4′-ethoxy-[1,1′-biphenyl]-2-yl)-2,2,2-trifluoroethoxy)pyrimidin-4-yl)-2,8-diazaspiro[4.5]decane-3-carboxylic acid]	6.52 to 7.30
CC(C)(C)c1cccc(-c2cc(Cl)ccc2[C@@H](Oc2cc(N3CCC4(CC3)CN[C@H](C(=O)O)C4)nc(N)n2)C(F)(F)F)c1 [Example 34ao, (S)-8-(2-amino-6-((R)-1-(3′-(tert-butyl)-5-chloro-[1,1′-biphenyl]-2-yl)-2,2,2-trifluoroethoxy)pyrimidin-4-yl)-2,8-diazaspiro[4.5]decane-3-carboxylic acid]	> 7.30
Cc1cc(-c2cc(Cl)ccc2[C@@H](Oc2cc(N3CCC4(CC3)CN[C@H](C(=O)O)C4)nc(N)n2)C(F)(F)F)ccc1Cl [Example 34at, (S)-8-(2-amino-6-((R)-1-(4′,5-dichloro-3′-methyl-[1,1′-biphenyl]-2-yl)-2,2,2-trifluoroethoxy)pyrimidin-4-yl)-2,8-diazaspiro[4.5]decane-3-carboxylic acid]	6.52 to 7.30
Nc1nc(O[C@H](c2ccc(Cl)cc2-c2cc(F)cc(F)c2)C(F)(F)F)cc(N2CCC3(CC2)CN[C@H](C(=O)O)C3)n1 [Example 34au, (S)-8-(2-amino-6-((R)-1-(5-chloro-3′,5′-difluoro-[1,1′-biphenyl]-2-yl)-2,2,2-trifluoroethoxy)pyrimidin-4-yl)-2,8-diazaspiro[4.5]decane-3-carboxylic acid]	> 7.30
Nc1nc(O[C@H](c2ccc(Cl)cc2-c2ccc(F)c(F)c2)C(F)(F)F)cc(N2CCC3(CC2)CN[C@H](C(=O)O)C3)n1 [Example 34aw, (S)-8-(2-amino-6-((R)-1-(5-chloro-3′,4′-difluoro-[1,1′-biphenyl]-2-yl)-2,2,2-trifluoroethoxy)pyrimidin-4-yl)-2,8-diazaspiro[4.5]decane-3-carboxylic acid]	> 7.30
Cc1cccc(-c2cc(Cl)ccc2[C@@H](Oc2cc(N3CCC4(CC3)CN[C@H](C(=O)O)C4)nc(N)n2)C(F)(F)F)c1 [Example 34b, (S)-8-(2-amino-6-((R)-1-(5-chloro-3′-methyl-[1,1′-biphenyl]-2-yl)-2,2,2-trifluoroethoxy)pyrimidin-4-yl)-2,8-diazaspiro[4.5]decane-3-carboxylic acid]	> 7.30

The next lines start with the values.

pIC50	SMILES
> 7.30	Nc1nc(O[C@H](c2ccc(Cl)cc2-c2cc(F)cc(Cl)c2)C(F)(F)F)cc(N2CCC3(CC2)CN[C@H](C(=O)O)C3)n1 [Example 34an, (S)-8-(2-amino-6-((R)-1-(3′,5-dichloro-5′-fluoro-[1,1′-biphenyl]-2-yl)-2,2,2-trifluoroethoxy)pyrimidin-4-yl)-2,8-diazaspiro[4.5]decane-3-carboxylic acid]
> 7.30	Nc1nc(O[C@H](c2ccc(Cl)cc2-c2cccc(F)c2)C(F)(F)F)cc(N2CCC3(CC2)CN[C@H](C(=O)O)C3)n1 [Example 34as, (S)-8-(2-amino-6-((R)-1-(5-chloro-3′-fluoro-[1,1′-biphenyl]-2-yl)-2,2,2-trifluoroethoxy)pyrimidin-4-yl)-2,8-diazaspiro[4.5]decane-3-carboxylic acid]

Same assay, conditions: read-out: TPH1 Range (TPH1 inhibition IC50)

SMILES	pIC50
CCOc1cccc(-c2cc(Cl)ccc2[C@@H](Oc2cc(N3CCC4(CC3)CN[C@H](C(=O)O)C4)nc(N)n2)C(F)(F)F)c1 [Example 34ah, (S)-8-(2-amino-6-((R)-1-(5-chloro-3′-ethoxy-[1,1′-biphenyl]-2-yl)-2,2,2-trifluoroethoxy)pyrimidin-4-yl)-2,8-diazaspiro[4.5]decane-3-carboxylic acid]	> 7.30
Cc1ccc(-c2cc(Cl)ccc2[C@@H](Oc2cc(N3CCC4(CC3)CN[C@H](C(=O)O)C4)nc(N)n2)C(F)(F)F)cc1Cl [Example 34aj, (S)-8-(2-amino-6-((R)-1-(3′,5-dichloro-4′-methyl-[1,1′-biphenyl]-2-yl)-2,2,2-trifluoroethoxy)pyrimidin-4-yl)-2,8-diazaspiro[4.5]decane-3-carboxylic acid]	6.52 to 7.30
CC(C)Oc1ccc(-c2cc(Cl)ccc2[C@@H](Oc2cc(N3CCC4(CC3)CN[C@H](C(=O)O)C4)nc(N)n2)C(F)(F)F)cc1Cl [Example 34ak, (S)-8-(2-amino-6-((R)-1-(3′,5-dichloro-4′-isopropoxy-[1,1′-biphenyl]-2-yl)-2,2,2-trifluoroethoxy)pyrimidin-4-yl)-2,8-diazaspiro[4.5]decane-3-carboxylic acid]	6.52 to 7.30
CC(C)Oc1ccc(-c2cc(Cl)ccc2[C@@H](Oc2cc(N3CCC4(CC3)CN[C@H](C(=O)O)C4)nc(N)n2)C(F)(F)F)cc1F [Example 34al, (S)-8-(2-amino-6-((R)-1-(5-chloro-3′-fluoro-4′-isopropoxy-[1,1′-biphenyl]-2-yl)-2,2,2-trifluoroethoxy)pyrimidin-4-yl)-2,8-diazaspiro[4.5]decane-3-carboxylic acid]	5.00 to 5.52
Cc1ccc(-c2cc(Cl)ccc2[C@@H](Oc2cc(N3CCC4(CC3)CN[C@H](C(=O)O)C4)nc(N)n2)C(F)(F)F)cc1C [Example 34ay, (S)-8-(2-amino-6-((R)-1-(5-chloro-3′,4′-dimethyl-[1,1′-biphenyl]-2-yl)-2,2,2-trifluoroethoxy)pyrimidin-4-yl)-2,8-diazaspiro[4.5]decane-3-carboxylic acid]	6.52 to 7.30
CCOc1ccc(-c2cc(Cl)ccc2[C@@H](Oc2cc(N3CCC4(CC3)CN[C@H](C(=O)O)C4)nc(N)n2)C(F)(F)F)cc1F [Example 34az, (S)-8-(2-amino-6-((R)-1-(5-chloro-4′-ethoxy-3′-fluoro-[1,1′-biphenyl]-2-yl)-2,2,2-trifluoroethoxy)pyrimidin-4-yl)-2,8-diazaspiro[4.5]decane-3-carboxylic acid]	5.52 to 6.52
Cc1cc(-c2cc(Cl)ccc2[C@@H](Oc2cc(N3CCC4(CC3)CN[C@H](C(=O)O)C4)nc(N)n2)C(F)(F)F)cc(C)c1Cl [Example 34bc, (S)-8-(2-amino-6-((R)-1-(4′,5-dichloro-3′,5′-dimethyl-[1,1′-biphenyl]-2-yl)-2,2,2-trifluoroethoxy)pyrimidin-4-yl)-2,8-diazaspiro[4.5]decane-3-carboxylic acid]	6.52 to 7.30

Other lines, results leading:

pIC50	SMILES
6.52 to 7.30	Nc1nc(O[C@H](c2ccc(Cl)cc2-c2ccc(Cl)c(C(F)(F)F)c2)C(F)(F)F)cc(N2CCC3(CC2)CN[C@H](C(=O)O)C3)n1 [Example 34am, (S)-8-(2-amino-6-((R)-1-(4′,5-dichloro-3′-(trifluoromethyl)-[1,1′-biphenyl]-2-yl)-2,2,2-trifluoroethoxy)pyrimidin-4-yl)-2,8-diazaspiro[4.5]decane-3-carboxylic acid]
6.52 to 7.30	Nc1nc(O[C@H](c2ccc(Cl)cc2-c2cc(Cl)cc(C(F)(F)F)c2)C(F)(F)F)cc(N2CCC3(CC2)CN[C@H](C(=O)O)C3)n1 [Example 34ap, (S)-8-(2-amino-6-((R)-1-(3′,5-dichloro-5′-(trifluoromethyl)-[1,1′-biphenyl]-2-yl)-2,2,2-trifluoroethoxy)pyrimidin-4-yl)-2,8-diazaspiro[4.5]decane-3-carboxylic acid]
> 7.30	Nc1nc(O[C@H](c2ccc(Cl)cc2-c2cc(F)cc(C(F)(F)F)c2)C(F)(F)F)cc(N2CCC3(CC2)CN[C@H](C(=O)O)C3)n1 [Example 34aq, (S)-8-(2-amino-6-((R)-1-(5-chloro-3′-fluoro-5′-(trifluoromethyl)-[1,1′-biphenyl]-2-yl)-2,2,2-trifluoroethoxy)pyrimidin-4-yl)-2,8-diazaspiro[4.5]decane-3-carboxylic acid]
> 7.30	Nc1nc(O[C@H](c2ccc(Cl)cc2-c2ccc(F)c(Cl)c2)C(F)(F)F)cc(N2CCC3(CC2)CN[C@H](C(=O)O)C3)n1 [Example 34av, (S)-8-(2-amino-6-((R)-1-(3′,5-dichloro-4′-fluoro-[1,1′-biphenyl]-2-yl)-2,2,2-trifluoroethoxy)pyrimidin-4-yl)-2,8-diazaspiro[4.5]decane-3-carboxylic acid]
6.52 to 7.30	Nc1nc(O[C@H](c2ccc(Cl)cc2-c2ccc(C(F)(F)F)c(Cl)c2)C(F)(F)F)cc(N2CCC3(CC2)CN[C@H](C(=O)O)C3)n1 [Example 34ax, (S)-8-(2-amino-6-((R)-1-(3′,5-dichloro-4′-(trifluoromethyl)-[1,1′-biphenyl]-2-yl)-2,2,2-trifluoroethoxy)pyrimidin-4-yl)-2,8-diazaspiro[4.5]decane-3-carboxylic acid]
> 7.30	Cc1cc(C)cc(-c2cc(Cl)ccc2[C@@H](Oc2cc(N3CCC4(CC3)CN[C@H](C(=O)O)C4)nc(N)n2)C(F)(F)F)c1 [Example 34ba, (S)-8-(2-amino-6-((R)-1-(5-chloro-3′,5′-dimethyl-[1,1′-biphenyl]-2-yl)-2,2,2-trifluoroethoxy)pyrimidin-4-yl)-2,8-diazaspiro[4.5]decane-3-carboxylic acid]
6.52 to 7.30	Cc1cc(-c2cc(Cl)ccc2[C@@H](Oc2cc(N3CCC4(CC3)CN[C@H](C(=O)O)C4)nc(N)n2)C(F)(F)F)ccc1OC(F)(F)F [Example 34bb, (S)-8-(2-amino-6-((R)-1-(5-chloro-3′-methyl-4′-(trifluoromethoxy)-[1,1′-biphenyl]-2-yl)-2,2,2-trifluoroethoxy)pyrimidin-4-yl)-2,8-diazaspiro[4.5]decane-3-carboxylic acid]
